As usually defined, the IC50 is the midpoint of a concentration-inhibition curve.

This is an account of results in ChEMBL document CHEMBL3808372, “Identification of quinones as novel PIM1 kinase inhibitors” (Bioorg Med Chem Lett, 2016).

Experiment [1] concerns the target Serine/threonine-protein kinase pim-1 (Homo sapiens, UniProt P11309). Description: Inhibition of recombinant human Pim1.
Experiment [2] can be described thus: Cytotoxicity against human DU145 cells assessed as cell growth inhibition after 72 hrs by Alamar blue assay. Type of experiment: functional, cell-based. Particulars: DU-145, 72 h. (Resazurin is reduced to fluorescent resorufin, in cell work by metabolically active cells.)

Serine/threonine-protein kinase pim-1, sequence (P11309 whole entry): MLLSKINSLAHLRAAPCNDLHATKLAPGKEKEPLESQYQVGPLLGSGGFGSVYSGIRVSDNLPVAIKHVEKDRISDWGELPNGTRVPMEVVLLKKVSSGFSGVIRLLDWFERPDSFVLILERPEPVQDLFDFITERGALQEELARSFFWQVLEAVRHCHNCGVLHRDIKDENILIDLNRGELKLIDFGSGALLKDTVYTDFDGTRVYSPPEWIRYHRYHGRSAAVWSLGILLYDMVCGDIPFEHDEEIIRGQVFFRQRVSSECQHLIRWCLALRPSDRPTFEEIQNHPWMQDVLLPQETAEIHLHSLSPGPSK

Regarding `COc1cccc2c1C(=O)c1c(O)ccc(O)c1C2=O`, the IC50 in experiment [1] came out at 11.6 µM. On the same count and under the same terms, the result for `O=C1C(CO)=C(CO)C(=O)c2c(O)ccc(O)c21` reads 7.4 µM; that for `CC(=O)Oc1ccc(O)c2c1C(=O)C=CC2=O`, 3 µM.

`CC(C)(C)OC1CC(O)CC2C(=O)c3c(O)ccc(O)c3C(=O)C12` (stereo unspecified): the values for the IC50 in experiment [2] and in experiment [1] were 3.21 µM and 3.5 µM, respectively. Taken in the same sequence, the figures for `Cc1cc(O)c2c(c1)C(=O)c1cc(O)cc(O)c1C2=O` [EMODIN] were 2.02 µM and 2.5 µM.

In the case of `CC(C)(C)OC1CC(=O)CC2C(=O)c3cccc(O)c3C(=O)C12` (stereo unspecified), the IC50 in experiment [1] came out at 23.8 µM.

Regarding `O=Cc1cc(O)c2c(c1O)C(=O)C=CC2=O`, the IC50 in experiment [1] came to 28 µM. In the case of `CC(C)C(C)OC1CC(=O)CC2C(=O)c3c(O)ccc(O)c3C(=O)C12` (stereo unspecified), the IC50 was found to be 4.06 µM in experiment [2] and 3.6 µM in experiment [1].

`COc1c(O)c(O)c2c(c1O)C(=O)c1cc(C)cc(O)c1C2=O`: the results for the IC50 in experiment [2] and in experiment [1] were 3.93 µM and 21.4 µM, respectively. Turning to `Oc1ccc(O)c2c(O)c3c(O)ccc(O)c3c(O)c12`, the IC50 in experiment [1] worked out at 57.1 µM. Still for that read-out and setting: with `Cc1cc(O)c2c(c1)C(=O)C=CC2=O` [RAMENTACEONE] the figure was 28 µM; with `O=C1C=C(CBr)C(=O)c2c(O)ccc(O)c21`, 27 µM.
